Measurements: patent US9376418B2, “Substituted pyridine spleen tyrosine kinase (SYK) inhibitors” (Merck Sharp & Dohme Corp., priority 2012, dated 2016)

target: T1, recombinant human GST-SYK (Homo sapiens, UniProt P43405); experiment: Homogeneous Time-Resolved Fluorescence (HTRF) assay for the recombinant human Syk enzyme; assay type: biochemical; details: HTRF assay, recombinant human GST-SYK; IC50 given as class symbols; read-out: rhSYK Activity
T1 construct: purchased Carna Biosciences 08-176
Summary of the method: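 Enzyme […], pH 7.5 Tris/tween/DTT buffer; 10 min preincubation with compound, RT. Start: 250 nM biotin-peptide, 25 μM ATP, 5 mM Mg; 45′ RT. Stop/detect: 40 mM EDTA, Eu-anti-pTyr, SA-APC; read 30 min later.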

Cc1cc(Nc2nccc(C(F)(F)F)n2)cc(-c2ccc(C(=O)NS(N)(=O)=O)nc2)c1 [Example 16.2] and CNC(=O)NCc1ccc(-c2cc(C)cc(Nc3nccc(C(F)(F)F)n3)c2)cn1 [Example 17.3, 1-methyl-3-{[5-(3-methyl-5-{[4-(trifluoromethyl)pyrimidin-2-yl]amino}phenyl)pyridin-2-yl]methyl}urea] cannot be ordered by IC50: < 100 nM for the first, < 100 nM for the second.

O=c1[nH]c2cc(-c3cccc(Nc4nccc(C(F)(F)F)n4)c3)cnc2[nH]1 [Example 2.44, 6-(3-{[4-(trifluoromethyl)pyrimidin-2-yl]amino}phenyl)-1,3-dihydro-2H-imidazo[4,5-b]pyridin-2-one] and O=C(O)c1cncc(-c2cccc(Nc3nccc(C(F)(F)F)n3)c2)c1 [Example 2.73, 5-(3-{[4-(trifluoromethyl)pyrimidin-2-yl]amino}phenyl)pyridine-3-carboxylic acid] cannot be ordered by IC50: < 100 nM for the first, < 100 nM for the second.

Cc1cc(Nc2nccc(C(F)(F)F)n2)cc(-c2cncc(C3(O)CCCC(C(=O)O)C3)c2)c1 (stereo not drawn) [Example 9.66, 3-hydroxy-3-[5-(3-methyl-5-{[4-(trifluoromethyl)pyrimidin-2-yl]amino}phenyl)pyridin-3-yl]cyclohexanecarboxylic acid] and Cc1cc(Nc2nccc(C(F)(F)F)n2)cc(-c2ccc(N3CCCC[C@@H]3C(=O)O)nc2)c1 [Example 7.85, (2R)-1-[5-(3-methyl-5-{[4-(trifluoromethyl)pyrimidin-2-yl]amino}phenyl)pyridin-2-yl]piperidine-2-carboxylic acid] cannot be ordered by IC50: < 100 nM for the first, < 100 nM for the second.

First: Cc1cc(Nc2nccc(C(F)(F)F)n2)cc(-c2ccnc(C3(O)CCC4(CC3)OCCO4)c2)c1 [Example 9.63, 8-[4-(3-methyl-5-{[4-(trifluoromethyl)pyrimidin-2-yl]amino}phenyl)pyridin-2-yl]-1,4-dioxaspiro[4.5]decan-8-ol]
Second: Cc1cc(Nc2nccc(C(F)(F)F)n2)cc(-c2ccnc(N(C)CCC3OCCO3)c2)c1 [Example 15.57, N-[3-(2-{[2-(1,3-dioxolan-2-yl)ethyl](methyl)amino}pyridin-4-yl)-5-methylphenyl]-4-(trifluoromethyl)pyrimidin-2-amine]
The IC50 of the first is lower: < 100 nM for the first, 100 to 1000 nM for the second. The first is the more potent here.

Cc1cc(Nc2nccc(C)n2)cc(-c2ccc(N[C@H]3CC[C@H](C(=O)O)CC3)nc2)c1 [Example 2.106, trans-4-[(5-{3-methyl-5-[(4-methylpyrimidin-2-yl)amino]phenyl}pyridin-2-yl)amino]cyclohexanecarboxylic acid] and CC[C@H](Nc1ccc(-c2cc(C)cc(Nc3nccc(C(F)(F)F)n3)c2)cn1)C(=O)O [Example 7.103, (2S)-2-{[5-(3-methyl-5-{[4-(trifluoromethyl)pyrimidin-2-yl]amino}phenyl)pyridin-2-yl]amino}butanoic acid] cannot be ordered by IC50: < 100 nM for the first, < 100 nM for the second.

First: Cc1cc(Nc2nccc(C(F)(F)F)n2)cc(-c2ccc(N3CCN(C)C(=O)C3C)nc2)c1 (stereo not drawn) [Example 7.55, 1,3-dimethyl-4-[5-(3-methyl-5-{[4-(trifluoromethyl)pyrimidin-2-yl]amino}phenyl)pyridin-2-yl]piperazin-2-one]
Second: Cc1cc(Nc2nccc(C(F)(F)F)n2)cc(-c2ccc(C(=O)N3CCN(C)CC3)nc2)c1 [Example 16.12, N-(3-methyl-5-{6-[(4-methylpiperazin-1-yl)carbonyl]pyridin-3-yl}phenyl)-4-(trifluoromethyl)pyrimidin-2-amine]
The IC50 of the first is lower: < 100 nM for the first, 100 to 1000 nM for the second. The first is the more potent here.

Cc1cc(Nc2nccc(C(F)(F)F)n2)cc(-c2ccc(NC(C)(C)C#N)nc2)c1 [Example 7.114, 2-methyl-2-{[5-(3-methyl-5-{[4-(trifluoromethyl)pyrimidin-2-yl]amino}phenyl)pyridin-2-yl]amino}propanenitrile] and CCC(C)(C#N)Nc1ccc(-c2cc(C)cc(Nc3nccc(C(F)(F)F)n3)c2)cn1 (stereo not drawn) [Example 7.118, 2-methyl-2-{[5-(3-methyl-5-{[4-(trifluoromethyl)pyrimidin-2-yl]amino}phenyl)pyridin-2-yl]amino}butanenitrile] cannot be ordered by IC50: < 100 nM for the first, < 100 nM for the second.

CCOC(=O)C(F)(F)C(O)c1ccc(-c2cc(C)cc(Nc3nccc(C(F)(F)F)n3)c2)cn1 (stereo not drawn) [Example 24.1, Ethyl 2,2-difluoro-3-hydroxy-3-[5-(3-methyl-5-{[4-(trifluoromethyl)pyrimidin-2-yl]amino}phenyl)pyridin-2-yl]propanoate] and Cc1cc(Nc2nccc(C(F)(F)F)n2)cc(-c2ccc(N[C@@H](CO)C(=O)O)nc2)c1 [Example 7.109, N-[5-(3-methyl-5-{[4-(trifluoromethyl)pyrimidin-2-yl]amino}phenyl)pyridin-2-yl]-L-serine] cannot be ordered by IC50: < 100 nM for the first, < 100 nM for the second.

Compared with Cc1cc(Nc2nccc(C(F)(F)F)n2)cc(-c2ccnc(N3CCN(C(=O)c4ccc5cc[nH]c5c4)CC3)c2)c1 [Example 15.39, N-(3-{2-[4-(1H-indol-6-ylcarbonyl)piperazin-1-yl]pyridin-4-yl}-5-methylphenyl)-4-(trifluoromethyl)pyrimidin-2-amine], Cc1cc(Nc2nccc(C(F)(F)F)n2)cc(-c2ccnc(N3CCC[C@H]3C(N)=O)c2)c1 [Example 15.73, 1-[4-(3-methyl-5-{[4-(trifluoromethyl)pyrimidin-2-yl]amino}phenyl)pyridin-2-yl]-L-prolinamide] is lower in IC50: 100 to 1000 nM for the first, < 100 nM for the second. The second is the more potent here.

Compared with Cc1cc(Nc2nccc(C(F)(F)F)n2)cc(-c2ccc(C(=O)N(C)CC3COCCO3)nc2)c1 (stereo not drawn) [Example 16.38, N-(1,4-dioxan-2-ylmethyl)-N-methyl-5-(3-methyl-5-{[4-(trifluoromethyl)pyrimidin-2-yl]amino}phenyl)pyridine-2-carboxamide], Cc1cc(Nc2nccc(C(F)(F)F)n2)cc(-c2ccc(C(=O)N(C)CC(O)CO)nc2)c1 (stereo not drawn) [Example 16.56, N-(2,3-dihydroxypropyl)-N-methyl-5-(3-methyl-5-{[4-(trifluoromethyl)pyrimidin-2-yl]amino}phenyl)pyridine-2-carboxamide] is lower in IC50: 100 to 1000 nM for the first, < 100 nM for the second.

Cc1cc(Nc2nccc(C(F)(F)F)n2)cc(-c2ccc(C3(O)CCN(C(N)=O)C3)nc2)c1 (stereo not drawn) [Example 10.4, 3-hydroxy-3-[5-(3-methyl-5-{[4-(trifluoromethyl)pyrimidin-2-yl]amino}phenyl)pyridin-2-yl]pyrrolidine-1-carboxamide] and Cc1cc(Nc2nccc(C(F)(F)F)n2)cc(-c2ccc(C(=O)N3CCCC(C)(O)C3)nc2)c1 (stereo not drawn) [Example 16.47, 3-methyl-1-{[5-(3-methyl-5-{[4-(trifluoromethyl)pyrimidin-2-yl]amino}phenyl)pyridin-2-yl]carbonyl}piperidin-3-ol] cannot be ordered by IC50: < 100 nM for the first, < 100 nM for the second.

CNc1ncc(-c2cc(C)cc(Nc3nccc(C(F)(F)F)n3)c2)cc1C(=O)O [Example 2.74, 2-(methylamino)-5-(3-methyl-5-{[4-(trifluoromethyl)pyrimidin-2-yl]amino}phenyl)pyridine-3-carboxylic acid] and Cc1cc(Nc2nccc(C(F)(F)F)n2)cc(-c2cccc(C(=O)O)n2)c1 [Example 2.13, 6-(3-methyl-5-{[4-(trifluoromethyl)pyrimidin-2-yl]amino}phenyl)pyridine-2-carboxylic acid] cannot be ordered by IC50: < 100 nM for the first, < 100 nM for the second.

Compared with Cc1cc(Nc2nccc(C(F)(F)F)n2)cc(-c2ccc(C(=O)NC3(CO)CCCC3)nc2)c1 [Example 16.21, N-[1-(hydroxymethyl)cyclopentyl]-5-(3-methyl-5-{[4-(trifluoromethyl)pyrimidin-2-yl]amino}phenyl)pyridin-2-carboxamide], Cc1cc(Nc2nccc(C(F)(F)F)n2)cc(-c2ccc(C(=O)N3CCC(C)(O)CC3)nc2)c1 [Example 16.48, 4-methyl-1-{[5-(3-methyl-5-{[4-(trifluoromethyl)pyrimidin-2-yl]amino}phenyl)pyridin-2-yl]carbonyl}piperidin-4-ol] is lower in IC50: 100 to 1000 nM for the first, < 100 nM for the second. The second is the more potent here.

CC1(C)CC(O)(c2ccc(-c3cc(F)cc(Nc4nccc(C(F)(F)F)n4)c3)cn2)CCC1C(=O)O (single isomer, unassigned) [Example 9.4, (1S,4R or 1R,4S)-4-[5-(3-fluoro-5-{[4-(trifluoromethyl)pyrimidin-2-yl]amino}phenyl)pyridin-2-yl]-4-hydroxy-2,2-dimethylcyclohexanecarboxylic acid] and CC(=O)NCCN(C)c1ccc(-c2cc(C)cc(Nc3nccc(C(F)(F)F)n3)c2)cn1 [Example 7.50, N-(2-{methyl[5-(3-methyl-5-{[4-(trifluoromethyl)pyrimidin-2-yl]amino}phenyl)pyridin-2-yl]amino}ethyl)acetamide] cannot be ordered by IC50: < 100 nM for the first, < 100 nM for the second.

Cc1cc(Nc2nccc(C(F)(F)F)n2)cc(-c2ccc(N3CCC([C@@H]4CCCC[C@H]4C(=O)O)CC3)nc2)c1 [Example 7.147, (1R,2S)-2-{1-[5-(3-methyl-5-{[4-(trifluoromethyl)pyrimidin-2-yl]amino}phenyl)pyridin-2-yl]piperidin-4-yl}cyclohexanecarboxylic acid] and Cc1cc(Nc2nccc(C(F)(F)F)n2)cc(-c2ccc(N[C@@H](Cc3ccccc3)C(=O)O)nc2)c1 [Example 7.155, N-[5-(3-methyl-5-{[4-(trifluoromethyl)pyrimidin-2-yl]amino}phenyl)pyridin-2-yl]-L-phenylalanine] cannot be ordered by IC50: < 100 nM for the first, < 100 nM for the second.

Cc1cc(Nc2nccc(C(F)(F)F)n2)cc(-c2cncc(C(C)(O)C(F)(F)F)c2)c1 (stereo not drawn) [Example 2.75, 1,1,1-trifluoro-2-[5-(3-methyl-5-{[4-(trifluoromethyl)pyrimidin-2-yl]amino}phenyl)pyridin-3-yl]propan-2-ol] and Cc1cc(Nc2nccc(C(F)(F)F)n2)cc(-c2ccnc(N[C@@H](C)CO)c2)c1 [Example 15.48, (2S)-2-{[4-(3-methyl-5-{[4-(trifluoromethyl)pyrimidin-2-yl]amino}phenyl)pyridin-2-yl]amino}propan-1-ol] cannot be ordered by IC50: < 100 nM for the first, < 100 nM for the second.

For O=C(O)CCc1cc(-c2cccc(Nc3nccc(C(F)(F)F)n3)c2)ccn1 [Example 2.129, 3-[4-(3-{[4-(trifluoromethyl)pyrimidin-2-yl]amino}phenyl)pyridin-2-yl]propanoic acid], the IC50 was < 100 nM.
